According to PMC6429214, “Design, Synthesis and Biological Evaluation of Isoxazole-Based CK1 Inhibitors Modified with Chiral Pyrrolidine Scaffolds” (Molecules, 2019):

How the values were obtained:
Assay in all cases: 33PanQinase panel
Format in all cases: biochemical
[1] = target: T1, CAMKK1 (Homo sapiens, UniProt Q8N5S9); conditions: CAMKK1, 1 µM; read-out: Residual Activity (%)
T1 construct: purchased ProQinase
Method in brief: (§1)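 The compound is tested at 1 µM against a panel of 320 wild-type protein kinases. A radiometric, activity-based 33P readout gives kinase activity, reported as residual percentage of the DMSO control; final DMSO is 1%.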

[2] = target: T2, CDC42BPB (Homo sapiens, UniProt Q9Y5S2); conditions: read-out: Residual Activity (%)
T2 construct: purchased ProQinase
Method in brief: as §1

[3] = target: T3, CDK19/CycC (Homo sapiens, UniProt Q9BWU1); conditions: read-out: Residual Activity (%)
T3 construct: purchased ProQinase
Method in brief: as §1

[4] = target: T4, CDK2/CycA2 (Homo sapiens, UniProt P24941); conditions: CDK2/CycA2, 1 µM; read-out: Residual Activity (%)
T4 construct: purchased ProQinase
Method in brief: as §1

[5] = target: T5, CDK4/CycD1 (Homo sapiens, UniProt P11802); conditions: CDK4/CycD1, 1 µM; read-out: Residual Activity (%)
T5 construct: purchased ProQinase
Method in brief: as §1

[6] = target: T6, CK2-alpha2 (Homo sapiens, UniProt P19784); conditions: CK2-alpha2, 1 µM; read-out: Residual Activity (%)
T6 construct: purchased ProQinase
Method in brief: as §1

[7] = target: T7, CLK4 (Homo sapiens, UniProt Q9HAZ1); conditions: CLK4, 1 µM; read-out: Residual Activity (%)
T7 construct: purchased ProQinase
Method in brief: as §1

[8] = target: T8, COT (Homo sapiens, UniProt P41279); conditions: read-out: Residual Activity (%)
T8 construct: purchased ProQinase
Method in brief: as §1

[9] = target: T9, DMPK (Homo sapiens, UniProt Q09013); conditions: read-out: Residual Activity (%)
T9 construct: purchased ProQinase
Method in brief: as §1

[10] = target: T10, ERK7 (Homo sapiens, UniProt Q8TD08); conditions: ERK7, 1 µM; read-out: Residual Activity (%)
T10 construct: purchased ProQinase
Method in brief: as §1

[11] = target: T11, FAK aa2-1052 (Homo sapiens, UniProt Q05397); conditions: FAK aa2-1052, 1 µM; read-out: Residual Activity (%)
T11 construct: purchased ProQinase
Method in brief: as §1

[12] = target: T12, FER (Homo sapiens, UniProt P16591); conditions: read-out: Residual Activity (%)
T12 construct: purchased ProQinase
Method in brief: as §1

[13] = target: T13, FLT3 (Homo sapiens, UniProt P36888); conditions: FLT3, 1 µM; read-out: Residual Activity (%)
T13 construct: purchased ProQinase
Method in brief: as §1

[14] = target: T14, MAP4K5 (Homo sapiens, UniProt Q9Y4K4); conditions: MAP4K5, 1 µM; read-out: Residual Activity (%)
T14 construct: purchased ProQinase
Method in brief: as §1

[15] = target: T15, MEK2 (Homo sapiens, UniProt P36507); conditions: MEK2, 1 µM; read-out: Residual Activity (%)
T15 construct: purchased ProQinase
Method in brief: as §1

[16] = target: T16, MERTK (Homo sapiens, UniProt Q12866); conditions: read-out: Residual Activity (%)
T16 construct: purchased ProQinase
Method in brief: as §1

[17] = target: T17, MINK1 (Homo sapiens, UniProt Q8N4C8); conditions: MINK1, 1 µM; read-out: Residual Activity (%)
T17 construct: purchased ProQinase
Method in brief: as §1

[18] = target: T18, MKNK1 (Homo sapiens, UniProt Q9BUB5); conditions: MKNK1, 1 µM; read-out: Residual Activity (%)
T18 construct: purchased ProQinase
Method in brief: as §1

[19] = target: T19, MYLK3 (Homo sapiens, UniProt Q32MK0); conditions: MYLK3, 1 µM; read-out: Residual Activity (%)
T19 construct: purchased ProQinase
Method in brief: as §1

[20] = target: T20, NEK4 (Homo sapiens, UniProt P51957); conditions: NEK4, 1 µM; read-out: Residual Activity (%)
T20 construct: purchased ProQinase
Method in brief: as §1

[21] = target: T21, PDGFR-alpha (Homo sapiens, UniProt P16234); conditions: read-out: Residual Activity (%)
T21 construct: purchased ProQinase
Method in brief: as §1

[22] = target: T22, PRKG1 (Homo sapiens, UniProt Q13976); conditions: PRKG1, 1 µM; read-out: Residual Activity (%)
T22 construct: purchased ProQinase
Method in brief: as §1

[23] = target: T23, PYK2 (Homo sapiens, UniProt Q14289); conditions: PYK2, 1 µM; read-out: Residual Activity (%)
T23 construct: purchased ProQinase
Method in brief: as §1

[24] = target: T24, RIPK5 (Homo sapiens, UniProt Q6XUX3); conditions: RIPK5, 1 µM; read-out: Residual Activity (%)
T24 construct: purchased ProQinase
Method in brief: as §1

[25] = target: T25, SGK3 (Homo sapiens, UniProt Q96BR1); conditions: SGK3, 1 µM; read-out: Residual Activity (%)
T25 construct: purchased ProQinase
Method in brief: as §1

[26] = target: T26, TNK1 (Homo sapiens, UniProt Q13470); conditions: TNK1, 1 µM; read-out: Residual Activity (%)
T26 construct: purchased ProQinase
Method in brief: as §1

[27] = target: T27, WNK3 (Homo sapiens, UniProt Q9BYP7); conditions: WNK3, 1 µM; read-out: Residual Activity (%)
T27 construct: purchased ProQinase
Method in brief: as §1

T10 sequence (Q8TD08 whole entry): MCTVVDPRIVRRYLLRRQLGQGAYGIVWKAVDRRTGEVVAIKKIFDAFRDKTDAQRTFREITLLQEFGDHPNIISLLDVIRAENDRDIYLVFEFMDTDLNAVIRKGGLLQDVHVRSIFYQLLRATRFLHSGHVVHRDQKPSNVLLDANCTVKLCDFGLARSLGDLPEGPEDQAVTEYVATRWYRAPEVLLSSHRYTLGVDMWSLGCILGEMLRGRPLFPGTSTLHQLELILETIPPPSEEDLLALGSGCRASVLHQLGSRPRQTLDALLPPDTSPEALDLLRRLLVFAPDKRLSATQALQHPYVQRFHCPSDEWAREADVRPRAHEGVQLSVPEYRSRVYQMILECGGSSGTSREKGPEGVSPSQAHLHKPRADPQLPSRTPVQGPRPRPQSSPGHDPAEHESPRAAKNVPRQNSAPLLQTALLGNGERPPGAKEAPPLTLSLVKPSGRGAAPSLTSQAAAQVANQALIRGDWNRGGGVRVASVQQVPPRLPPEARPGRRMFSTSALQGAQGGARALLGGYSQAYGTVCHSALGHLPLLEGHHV
T8 sequence (P41279 whole entry): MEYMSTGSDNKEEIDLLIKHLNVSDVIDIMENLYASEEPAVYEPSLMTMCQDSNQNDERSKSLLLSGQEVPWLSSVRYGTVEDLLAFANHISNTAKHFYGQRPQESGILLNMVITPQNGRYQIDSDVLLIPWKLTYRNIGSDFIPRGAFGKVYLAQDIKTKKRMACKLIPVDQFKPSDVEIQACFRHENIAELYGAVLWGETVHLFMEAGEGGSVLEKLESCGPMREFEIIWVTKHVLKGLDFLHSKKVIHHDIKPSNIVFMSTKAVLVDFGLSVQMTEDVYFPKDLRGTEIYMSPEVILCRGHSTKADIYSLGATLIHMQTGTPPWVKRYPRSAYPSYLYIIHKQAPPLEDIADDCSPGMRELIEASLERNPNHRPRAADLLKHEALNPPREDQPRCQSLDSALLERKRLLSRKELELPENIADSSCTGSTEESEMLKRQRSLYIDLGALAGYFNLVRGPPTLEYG
T26 sequence (Q13470 whole entry): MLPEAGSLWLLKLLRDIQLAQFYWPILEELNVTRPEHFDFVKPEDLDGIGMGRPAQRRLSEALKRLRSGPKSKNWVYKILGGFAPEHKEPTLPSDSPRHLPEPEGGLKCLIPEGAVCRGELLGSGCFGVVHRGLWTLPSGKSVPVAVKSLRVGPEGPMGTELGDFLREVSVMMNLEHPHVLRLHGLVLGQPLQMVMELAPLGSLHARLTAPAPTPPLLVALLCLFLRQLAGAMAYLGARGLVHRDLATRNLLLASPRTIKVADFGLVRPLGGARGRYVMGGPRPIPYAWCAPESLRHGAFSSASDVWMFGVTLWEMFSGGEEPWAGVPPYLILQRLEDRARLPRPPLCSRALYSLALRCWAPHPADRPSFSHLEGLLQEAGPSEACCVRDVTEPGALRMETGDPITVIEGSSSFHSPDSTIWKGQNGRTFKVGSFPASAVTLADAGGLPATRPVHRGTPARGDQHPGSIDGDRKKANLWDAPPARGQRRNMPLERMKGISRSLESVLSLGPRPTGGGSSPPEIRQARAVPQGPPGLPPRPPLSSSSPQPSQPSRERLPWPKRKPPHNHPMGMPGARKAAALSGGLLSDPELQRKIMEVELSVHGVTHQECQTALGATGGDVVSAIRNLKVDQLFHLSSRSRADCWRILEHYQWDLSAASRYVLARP
T13 sequence (P36888 27-993): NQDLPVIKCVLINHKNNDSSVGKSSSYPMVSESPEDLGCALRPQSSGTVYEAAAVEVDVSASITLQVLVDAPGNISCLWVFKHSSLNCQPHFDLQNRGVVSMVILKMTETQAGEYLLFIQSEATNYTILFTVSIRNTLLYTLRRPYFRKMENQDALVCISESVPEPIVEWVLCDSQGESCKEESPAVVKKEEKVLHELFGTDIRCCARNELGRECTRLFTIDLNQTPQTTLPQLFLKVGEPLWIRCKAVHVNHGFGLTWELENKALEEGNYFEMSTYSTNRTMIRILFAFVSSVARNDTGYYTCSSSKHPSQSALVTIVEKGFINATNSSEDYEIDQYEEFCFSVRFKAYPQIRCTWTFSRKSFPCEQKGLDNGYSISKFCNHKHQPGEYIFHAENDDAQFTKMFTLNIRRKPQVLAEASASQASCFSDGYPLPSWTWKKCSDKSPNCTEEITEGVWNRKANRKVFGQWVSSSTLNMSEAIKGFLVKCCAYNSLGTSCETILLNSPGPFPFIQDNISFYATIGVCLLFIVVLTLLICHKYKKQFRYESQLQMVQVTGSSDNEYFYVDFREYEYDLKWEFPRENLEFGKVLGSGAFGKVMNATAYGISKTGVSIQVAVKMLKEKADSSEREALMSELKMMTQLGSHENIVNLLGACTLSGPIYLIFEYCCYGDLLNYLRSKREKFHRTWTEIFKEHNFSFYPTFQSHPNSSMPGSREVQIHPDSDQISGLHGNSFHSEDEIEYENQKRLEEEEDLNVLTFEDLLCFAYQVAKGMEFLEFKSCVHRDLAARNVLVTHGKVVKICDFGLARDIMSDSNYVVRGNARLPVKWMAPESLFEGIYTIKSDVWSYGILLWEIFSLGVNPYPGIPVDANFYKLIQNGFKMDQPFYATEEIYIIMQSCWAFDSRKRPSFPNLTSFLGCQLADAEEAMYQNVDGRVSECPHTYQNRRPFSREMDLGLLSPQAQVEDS
T24 sequence (Q6XUX3 whole entry): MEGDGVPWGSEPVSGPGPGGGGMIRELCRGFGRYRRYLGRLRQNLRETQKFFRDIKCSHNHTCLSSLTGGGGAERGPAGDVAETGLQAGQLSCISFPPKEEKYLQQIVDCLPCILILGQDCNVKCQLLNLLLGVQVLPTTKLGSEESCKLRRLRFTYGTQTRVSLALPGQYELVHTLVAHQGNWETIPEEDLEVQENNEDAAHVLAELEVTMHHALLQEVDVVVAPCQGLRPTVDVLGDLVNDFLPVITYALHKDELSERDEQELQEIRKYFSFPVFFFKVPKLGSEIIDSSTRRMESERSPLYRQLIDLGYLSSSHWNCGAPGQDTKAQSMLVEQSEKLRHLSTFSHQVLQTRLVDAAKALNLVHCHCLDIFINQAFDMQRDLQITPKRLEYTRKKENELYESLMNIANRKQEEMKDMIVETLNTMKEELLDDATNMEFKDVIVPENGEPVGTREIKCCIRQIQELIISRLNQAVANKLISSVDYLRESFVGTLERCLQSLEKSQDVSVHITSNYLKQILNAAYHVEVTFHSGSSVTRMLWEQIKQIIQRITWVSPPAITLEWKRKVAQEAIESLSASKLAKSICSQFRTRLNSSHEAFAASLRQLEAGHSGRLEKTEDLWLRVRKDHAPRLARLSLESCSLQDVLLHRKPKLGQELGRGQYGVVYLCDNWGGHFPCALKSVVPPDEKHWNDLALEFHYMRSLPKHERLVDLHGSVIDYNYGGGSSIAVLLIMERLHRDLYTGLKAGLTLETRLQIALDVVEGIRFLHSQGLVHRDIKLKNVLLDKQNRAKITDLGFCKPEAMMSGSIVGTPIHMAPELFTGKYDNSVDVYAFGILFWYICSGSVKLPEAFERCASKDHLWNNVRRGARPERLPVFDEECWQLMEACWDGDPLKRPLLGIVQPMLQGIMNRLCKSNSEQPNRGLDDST
T16 sequence (Q12866 21-999): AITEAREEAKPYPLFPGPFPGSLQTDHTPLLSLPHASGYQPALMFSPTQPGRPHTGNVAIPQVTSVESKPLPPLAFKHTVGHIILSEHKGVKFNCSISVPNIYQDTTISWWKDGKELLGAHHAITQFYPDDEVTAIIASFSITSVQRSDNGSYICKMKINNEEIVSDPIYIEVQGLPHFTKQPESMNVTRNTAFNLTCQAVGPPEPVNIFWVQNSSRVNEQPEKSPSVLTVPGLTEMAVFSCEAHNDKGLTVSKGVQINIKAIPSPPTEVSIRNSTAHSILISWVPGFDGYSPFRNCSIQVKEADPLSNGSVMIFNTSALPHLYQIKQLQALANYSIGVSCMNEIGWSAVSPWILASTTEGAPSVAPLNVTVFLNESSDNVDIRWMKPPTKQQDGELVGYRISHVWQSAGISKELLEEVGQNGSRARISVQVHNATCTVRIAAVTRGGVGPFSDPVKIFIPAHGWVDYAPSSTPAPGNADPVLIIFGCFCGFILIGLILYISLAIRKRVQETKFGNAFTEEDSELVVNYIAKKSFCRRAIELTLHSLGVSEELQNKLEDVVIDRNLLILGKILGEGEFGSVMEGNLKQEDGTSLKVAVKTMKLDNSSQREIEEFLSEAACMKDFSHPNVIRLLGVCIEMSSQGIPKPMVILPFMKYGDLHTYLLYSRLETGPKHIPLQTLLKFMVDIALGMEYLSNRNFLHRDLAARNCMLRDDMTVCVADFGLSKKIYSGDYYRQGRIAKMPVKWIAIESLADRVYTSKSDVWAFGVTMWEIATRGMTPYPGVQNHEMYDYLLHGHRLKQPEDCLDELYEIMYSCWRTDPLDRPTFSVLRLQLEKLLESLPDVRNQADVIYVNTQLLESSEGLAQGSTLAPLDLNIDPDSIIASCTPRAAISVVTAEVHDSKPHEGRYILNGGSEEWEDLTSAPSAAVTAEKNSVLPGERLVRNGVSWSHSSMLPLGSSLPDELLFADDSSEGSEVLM
T6 sequence (P19784 whole entry): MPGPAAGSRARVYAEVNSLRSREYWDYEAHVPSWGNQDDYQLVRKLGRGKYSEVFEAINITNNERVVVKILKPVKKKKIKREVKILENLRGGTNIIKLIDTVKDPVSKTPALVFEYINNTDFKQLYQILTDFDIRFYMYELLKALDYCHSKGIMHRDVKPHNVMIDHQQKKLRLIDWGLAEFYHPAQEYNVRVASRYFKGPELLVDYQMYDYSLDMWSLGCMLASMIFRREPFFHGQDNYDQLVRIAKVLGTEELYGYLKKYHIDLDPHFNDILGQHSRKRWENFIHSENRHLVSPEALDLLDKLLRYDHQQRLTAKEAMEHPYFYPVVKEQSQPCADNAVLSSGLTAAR

COc1ccc(-c2cc(C(=O)Nc3cc(-c4c(-c5ccc(F)cc5)noc4C(C)C)ccn3)n(CC3NCC(O)C3O)c2)cc1 (stereo not drawn) [29d]
remaining activity at 1 µM [1]: 89% | remaining activity at 1 µM [2]: 86% | remaining activity at 1 µM [3]: 84% | remaining activity at 1 µM [4]: 102% | remaining activity at 1 µM [5]: 108% | remaining activity at 1 µM [6]: 111% | remaining activity at 1 µM [7]: 104% | remaining activity at 1 µM [8]: 89% | remaining activity at 1 µM [9]: 93% | remaining activity at 1 µM [10]: 102% | remaining activity at 1 µM [11]: 120% | remaining activity at 1 µM [12]: 98% | remaining activity at 1 µM [13]: 87% | remaining activity at 1 µM [14]: 96% | remaining activity at 1 µM [15]: 108% | remaining activity at 1 µM [16]: 76% | remaining activity at 1 µM [17]: 82% | remaining activity at 1 µM [18]: 82% | remaining activity at 1 µM [19]: 87% | remaining activity at 1 µM [20]: 108% | remaining activity at 1 µM [21]: 89% | remaining activity at 1 µM [22]: 89% | remaining activity at 1 µM [23]: 116% | remaining activity at 1 µM [24]: 99% | remaining activity at 1 µM [25]: 97% | remaining activity at 1 µM [26]: 104% | remaining activity at 1 µM [27]: 103%
